Assay results as given in patent US20260091136A1, “USING ENHO GENE THERAPY TO TREAT CARDIOMETABOLIC DISEASE” (University of Pittsburgh-of the Commonwealth System of …, priority 2023, published 2026).
“Also recorded” adds a separate entry of the source.

Columns and labels:
[1] = tested on: diabetic mice; settings: cited from earlier work
[2] = tested on: hearts isolated from chow-fed mice; settings: cited from earlier work
[3] = tested on: HFpEF mice; test: Cardiac function testing by ultrasonography in HFpEF mice (Example 1); type: in vivo; settings: for diastolic function: HFpEF mice, daily Adropin treatment
Procedure: (§1) Administration of Recombinant Adropin. Mice received low-fat chow or HFpEF diet for 10 weeks. For the following 4 weeks, the mice were maintained on respective diets and received daily injections of recombinant Adropin. Body weight was measured every day during the four weeks of treatment.
Cardiac function testing. After 2 weeks, mice were tested using ultrasonography to measure cardiac function and morphology. To determine systolic function and morphology, mice were tested using M-mode echocardiography to measure left ventricle (LV) mass, volume, wall thickness, and contraction (LV ejection fraction and fractional shortening). To determine diastolic function, mice were tested using Doppler to measure LV relaxation and filling (E/A ratio, E/e′ ratio, and isovolumetric relaxation time [IVRT]).

[4] = tested on: CPT1b; test: O-GlcNAc co-immunoprecipitation from heart: CPT1b; type: in vivo, C57BL/6J mice; settings: Adropin-treated HFpEF mice, relative to levels in chow mice / HFpEF
Description: (§2) Animal Care and Use. Male C57BL/6J 8-week-old mice were obtained from the Jackson Laboratory and maintained on chow for 4 weeks to acclimate to their new environment. Animals were housed in the University of Pittsburgh animal facility under standard conditions with ad libitum access to water and food and maintained on a constant 12-hour light/dark cycle. At 12 weeks of age, the mice were exposed to normal chow (Chow; 60% carbohydrate, 26% protein, 14% fat), or a combination of high-fat diet (HFD; 20% carbohydrate, 20% protein, 60% fat) plus No-nitro-L-arginine methyl ester (L-NAME: 0.5 g/L) supplemented in their drinking water after adjusting the pH to 7.4 with 1N NaOH to induce HFpEF [10]. For cohort 1, the mice were subject to the HFpEF diet for 15 weeks. For cohort 2, after 8 weeks of diet, mice were randomly assigned to a control or treatment group receiving daily intraperitoneal injections of either vehicle or recombinant adropin at 450 nmol/kg animal weight prepared in PBS with 0.1% BSA for the remaining 5 weeks of the study. L-NAME supplemented drinking water was changed weekly and adropin was made fresh and sterile filtered before each use.
(§3) Co-Immunoprecipitation. […] Images were obtained using LiCor Odyssey CLx System and protein densitometry was measured using the LiCor Image Studio Lite Ver. […]

[5] = tested on: LCAD; test: O-GlcNAc co-immunoprecipitation from heart: LCAD; type: in vivo, C57BL/6J mice; settings: Adropin-treated HFpEF mice, relative to levels in chow mice / HFpEF
Description: as §2, §3

[6] = tested on: HFpEF mice; test: Glucose tolerance testing (IPGTT) in HFpEF mice (Example 1); type: in vivo; settings: for glucose tolerance: HFpEF mice, four weeks of Adropin treatment
Procedure: as §1
Glucose tolerance testing. Glucose tolerance was tested (IPGTT), following a 2 g/kg bolus of glucose. Blood was collected at 15 mins, 30 mins, 45 mins, 60 mins, 90 mins, and 120 mins, and measured using a standard glucometer (Bayer Next EZ). Time-courses for blood glucose uptake will be generated and analyzed for significance using standard statistical tests.

[7] = tested on: hexosamine biosynthesis pathway (HBP); test: Metabolomics of hearts, HFpEF vs HFpEF+Adropin; type: in vivo, C57BL/6J mice; settings: heart; for cardiac hexose and pyruvate levels: Adropin-treated HFpEF mice; for hexosamine biosynthesis pathway (metabolites related to UDP-GlcNAc biosynthesis), untargeted BioCyc pathway analysis: vehicle-treated vs adropin-treated HFpEF groups
Description: as §2
Quantitative Metabolomics. Metabolic quenching and polar metabolite pool extraction was performed by adding ice cold 80% methanol (aqueous) at a ratio of 1:15 wt input tissue:vol. (13 C1)-creatinine, (D3)-taurine, (D3)-lactate and (D3)-alanine were added to the sample lysates as an internal standard for a final concentration of […]. Samples are homogenized using an MP Bio FastPrep system using Matrix D (ceramic sphere) for 60 seconds at 60 hz. The supernatant was then cleared of protein by centrifugation at 16,000 g. 2 μL of cleared supernatant was subjected to online LC-MS analysis. Analyses were performed by untargeted liquid chromatography-high-resolution mass spectrometry (LC-HRMS). Briefly, samples were injected via a Thermo Vanquish UHPLC and separated over a reversed phase. Thermo HyperCarb porous graphite column (2.1×100 mm, […]) maintained at 55° C. For the 20 min LC gradient, the mobile phase consisted of the following: solvent A (water/0.1% FA) and solvent B (ACN/0.1% FA). The gradient was the following: 0-1 min 1% B, increase to 15% B over 5 min, continue increasing to 98% B over 5 min, hold at 98% B for five min, re-equillibrate at 1% B for five min. The Thermo IDX tribrid mass spectrometer was operated in both positive and negative ion mode, scanning in ddMS2 mode (2 scans) from 70 to 800 m/z at 120,000 resolution with an AGC target of 2e5 for full scan, 2e4 for ms2 scans using HCD fragmentation at stepped 15, 35, 50 collision energies. Source ionization setting was 3.0 and 2.4 kV spray voltage, respectively, for positive and negative mode. Source gas parameters were 35 sheath gas, 12 auxiliary gas at 320° C., and 8 sweep gas. Calibration was performed prior to analysis using the Pierce™ FlexMix Ion Calibration Solutions. Integrated peak areas were then extracted manually using Quan Browser (Thermo Fisher Xcalibur ver. 2.7). Untargeted differential comparisons were performed using Compound Discoverer 3.0 to generate a ranked list of significant compounds with tentative identifications from BioCyc, KEGG, and internal compound databases. Purified standards were then purchased and compared in retention time, m/z, along with ms2 fragmentation patterns to validate the identity of significant hits.

[8] = 2 weeks of Adropin, vs HFpEF mice without treatment
[9] = 2 weeks of Adropin, vs HFpEF mice without treatment, p-value <0.05
[10] = IPGTT AUC analysis, p-value <0.05

Substance: Adropin: recombinant Adropin peptide hormone encoded by the ENHO gene; full-length (SEQ ID NO: 1) or cleaved product of amino acids 34-76 (SEQ ID NO: 2) (CHSRSADVDSLSESSPNSSPGPCPEKAPPPQKPSHEGSYLLQP)
- vascular stiffness ([1]; diet-induced obesity, previous study [9]): reduced
- hepatocellular injury in NAFLD/MAFLD ([1]; exogenous adropin treatment, recent studies [34]): alleviates
- physical activity ([1]; previous studies [6-8]): improved
- hepatic steatosis and injury ([1]; previous studies [7, 34]): attenuated
- glucose oxidation in the hearts of diabetic mice ([1]; previous work from our group): restores
- liver glucose production in diabetic mice ([1]; previous work from our group): decreases
- cardiac contractility ([2]; acute adropin treatment, hearts isolated from chow-fed mice [32]): increase
- effect on cardiac contractility after exposure to a long-term HFD ([2]; ex vivo perfusion studies [33]): lost
- average cardiac output [3, 8]: greater
- average ejection fraction [3, 8]: greater
- isovolumetric relaxation time (IVRT) [3, 9]: significantly lower
- left ventricle myocardial performance index (LV MPI) [3, 9]: significantly lower
- diastolic function [3]: improves
- diastolic function ([3]; listed as Recombinant Adropin): significant increase
- diastolic function ([3]; listed as recombinant Adropin): improved
- average LV mass ([3]; following 2 weeks of Adropin, vs HFpEF mice without treatment): lower
- CPT1b O-GlcNAcylation [4]: restored; also recorded: reduced
- LCAD O-GlcNAcylation [5]: restored; also recorded: reduced
- average blood glucose, IPGTT ([6]; HFpEF mice that received Adropin, by the 120 minute timepoint): gradually decreased to match control chow mice
- glucose tolerance [6]: increase
- glucose tolerance ([6]; listed as Recombinant Adropin): significant increase
- blood glucose AUC of HFpEF mice that received Adropin relative to control chow mice [6, 10]: significantly greater
- blood glucose AUC of HFpEF mice without Adropin relative to HFpEF mice that received Adropin [6, 10]: significantly greater
- cardiac hexose and pyruvate levels [7]: trend towards decreased
- cardiac hexose and pyruvate levels ([7]; listed as adropin): trend towards restored
- abundance of metabolites used to generate UDP-GlcNAc (GlcNAc-6-P, uridine, coenzyme A) ([7]; relative to HFpEF mice): significant increase
- hexosamine biosynthesis pathway (metabolites related to UDP-GlcNAc biosynthesis), untargeted BioCyc pathway analysis [7]: major metabolomic differences; also recorded: modulated
- hexosamine biosynthesis pathway (metabolites related to UDP-GlcNAc biosynthesis), untargeted BioCyc pathway analysis ([7]; listed as adropin): major metabolomic difference; also recorded: inhibits
